{"source": "ChEMBL document CHEMBL3102830", "about": "“Involvement of apoptosis and autophagy in the death of RPMI 8226 multiple myeloma cells by two enantiomeric sigma receptor ligands” (Bioorg Med Chem, 2014)", "assay_type_in_all_cases": "tissue-based", "key": {"[1]": {"assay": "Displacement of [3H]-DTG from sigma-2 receptor in rat liver homogenates in presence of (+)-pentazocine"}, "[2]": {"assay": "Selectivity ratio of Ki for sigma-2 receptor in rat liver homogenates to Ki for sigma-1 receptor in guinea pig brain homogenates"}, "[3]": {"assay": "Binding affinity to sigma-2 receptor in rat liver homogenates"}}}
{"smiles": "COc1ccc(CN2CCN(Cc3ccccc3)CC2)cc1", "values": [{"measurement": "Ki", "setting": "[1]", "result": 161, "unit": "nM"}]}
{"smiles": "COc1ccc(CN2CCN(Cc3ccccc3)[C@@H](CO)C2)cc1", "values": [{"measurement": "Ratio Ki", "setting": "[2]", "result": 5.8}, {"measurement": "Ki", "setting": "[3]", "result": 70, "unit": "nM"}]}
